Where two headings read alike, the source gives them in different places. Marks after values point to notes of the source that are not given here. Ends that are not written are not given here.
Assays:
Caco-2 cells = format: cell-based, human; conditions: for Viable Cells (%): SD; for inhibition of Caco-2 proliferation: human, Caco-2, 72 h
Method: The human CRC cell line Caco-2 was obtained from American Type Cell Collection (ATCC, Manassas, VA, USA) and cultured in MEM medium supplemented with 20% FBS, 1% penicillin, and 1% streptomycin. Cells were maintained at 37 °C in a humidified incubator containing 5% CO2 and 95% air. The medium was changed every 24 h. All cells were assayed within 5–15 passages. Utilizing the CCK-8 kit (Biorigin, Beijing, China), the toxicity test was first performed. Caco-2 cells (100 µL) were incubated in the 96-well plate (1 × 10^5 cells/well) for 24 h, then the original medium was replaced with fresh medium containing different concentrations of QP (1–8 g/L), QPH (1–8 g/L), fraction MW < 5 kDa (1–8 g/L), fraction MW > 5 kDa (1–8 g/L), and selected peptides ranging from 0 to 2 g/L. After 24 h co-cultivation, the medium was discarded and washed with PBS 2 times, and a fresh medium with 10% CCK-8 reagent was added to each cell. Another 1 h later, the absorbance (OD value) was determined by an enzyme-labeling instrument at a wavelength of 450 nm. Experiments were performed in triplicate with at least three replicates per concentration, and results were expressed as percentage of negative control (non-treated Caco-2 cells).
For the proliferation experiments, Caco-2 cells were seeded into 96-well plates at a density of 2.5 × 10^4 per well for 24 h, the incubation was continued for 72 h. After that, the subsequent washing and CCK-8 reaction process were the same as performed in the toxicity test. Finally, the absorbance was also detected at 450 nm. Analyses were performed in triplicate with at least three replicates per concentration, and results were also shown as the percentage of non-treated Caco-2 cells.

HDAC1 = target: T1, HDAC1 (Homo sapiens, UniProt Q13547); test: HDAC1 inhibitory activity assay (inhibitor screening kit, fluorescence); format: biochemical; conditions: for HDAC1 IC50 attained or not, in words: peptide 0.05–2 g/L tested; for IC50: peptide 0.05–2 g/L, 30 min at 37 °C, fluorescence, triplicate
T1 construct: purchased Abnova
T1 sequence (Q13547 whole entry): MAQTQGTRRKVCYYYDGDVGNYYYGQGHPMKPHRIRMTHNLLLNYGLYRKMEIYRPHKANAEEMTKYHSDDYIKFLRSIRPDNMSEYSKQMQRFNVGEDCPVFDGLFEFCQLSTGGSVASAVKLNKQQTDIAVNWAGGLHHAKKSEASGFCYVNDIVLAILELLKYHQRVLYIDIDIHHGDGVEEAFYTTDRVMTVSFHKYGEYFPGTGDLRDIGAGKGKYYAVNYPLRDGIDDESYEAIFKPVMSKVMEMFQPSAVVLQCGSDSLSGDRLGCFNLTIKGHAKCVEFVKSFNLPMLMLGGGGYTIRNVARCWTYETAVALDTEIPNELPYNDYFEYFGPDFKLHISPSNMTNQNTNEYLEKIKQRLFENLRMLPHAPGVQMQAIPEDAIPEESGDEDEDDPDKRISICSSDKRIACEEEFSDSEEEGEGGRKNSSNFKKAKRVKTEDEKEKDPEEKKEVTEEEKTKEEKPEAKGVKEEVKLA
Method: HDAC1 activity was determined using the HDAC1 inhibitor screening assay kit (Abnova, Taipei, Taiwan). The assay was performed according to the manufacture instruction manual. Briefly, the sample wells were added 140 µL assay buffer, 10 µL diluted HDAC1, and 10 µL peptide samples (0.05–2 g/L). The trichostatin A was set as the positive control, and the sample buffer was set as the negative control. We initiated the reactions by adding 10 µL of HDAC substrate to all the wells being used. Cover the plate with the plate cover and incubate on a shaker for 30 min at 37 °C. Remove the plate cover and add 40 µL of developer. Cover the plate with the plate cover and incubate for 15 min at room temperature. Remove the plate cover and read the fluorescence using an excitation wavelength of 340–360 nm and an emission wavelength of 440–465 nm. IC50 values were calculated using GraphPad Prism 8 software. Analyses were performed in triplicate with at least three replicates per concentration.

colon cancer cells = conditions: read-out: 50% inhibition; cited from earlier work
Excerpt: Histone acetylation and deacetylation are important for the regulation of gene expression. The family of HDACs includes 18 members, and class I HDACs (HDAC 1, 2, 3, and 8) is considered to be the most important ones. […] For example, HDAC1 expression was increased in colorectal cancer and gastric cancer. In contrast, HDAC1 knockdown causes cell cycle arrest, reduces cancer cell viability, and induces cancer cell apoptosis. Moreover, pharmacological inhibitors ...

[1] = Caco-2, CCK-8, peptide 1 g/L, % of non-treated cells, mean ± SD
[2] = Caco-2, CCK-8, peptide 1 × 10^−1 g/L, % of non-treated cells, mean ± SD
[3] = Caco-2, CCK-8, peptide 2 g/L, % of non-treated cells, mean ± SD
[4] = Caco-2, CCK-8, peptide 5 × 10^−1 g/L, % of non-treated cells, mean ± SD

## FHPFPR [FHPFPR]
Caco-2 cells; 24 h, 0.1 g/L
  Viable Cells (%): 90.04 ± 1.26 ^e %
Caco-2 cells; 24 h, 0.5 g/L
  Viable Cells (%): 75.46 ± 0.86 ^f %
Caco-2 cells; 24 h, 1 g/L
  Viable Cells (%): 51.41 ± 0.80 ^k %
Caco-2 cells; 24 h, 2 g/L
  Viable Cells (%): 50.82 ± 0.76 ^j %
Caco-2 cells; 1 g/L
  inhibition of Caco-2 proliferation: more than 30%
HDAC1
  HDAC1 IC50 attained or not, in words: can reach to IC50 value
  IC50: 1090 µM

## PNFHPFPR [PNFHPFPR]
Caco-2 cells; 24 h, 0.1 g/L
  Viable Cells (%): 90.46 ± 1.43 ^e %
Caco-2 cells; 24 h, 0.5 g/L
  Viable Cells (%): 77.26 ± 1.65 ^f %
Caco-2 cells; 24 h, 1 g/L
  Viable Cells (%): 65.32 ± 1.45 ^j %
Caco-2 cells; 24 h, 2 g/L
  Viable Cells (%): 61.67 ± 1.64 ^i %
Caco-2 cells; 1 g/L
  inhibition of Caco-2 proliferation: more than 30%
HDAC1
  HDAC1 IC50 attained or not, in words: can reach to IC50 value

## NSWGPNWGDHG [quinoa peptide identified from QPH fraction < 5 kDa]
Caco-2 cells; [1]
  Viable Cells (%): 99.58 ± 1.08 ^a %
Caco-2 cells; [2]
  Viable Cells (%): 98.87%
Caco-2 cells; [3]
  Viable Cells (%): 97.92 ± 1.41 ^a %
Caco-2 cells; [4]
  Viable Cells (%): 98.60 ± 2.28 ^a %

## HYNPYFPGGA [HYNPYFPGGA]
Caco-2 cells; 24 h, 0.1 g/L
  Viable Cells (%): 93.69 ± 0.68 ^d %
Caco-2 cells; 24 h, 0.5 g/L
  Viable Cells (%): 82.34 ± 1.36 ^e %
Caco-2 cells; 24 h, 1 g/L
  Viable Cells (%): 67.44 ± 1.26 ^i %
Caco-2 cells; 24 h, 2 g/L
  Viable Cells (%): 67.10 ± 1.87 ^h %
Caco-2 cells; 1 g/L
  inhibition of Caco-2 proliferation: more than 30%
HDAC1
  HDAC1 IC50 attained or not, in words: can reach to IC50 value
  IC50: 1650 µM

## SVENWFPLPR [quinoa peptide identified from QPH fraction < 5 kDa]
Caco-2 cells; [1]
  Viable Cells (%): 92.14 ± 0.69 ^c %
Caco-2 cells; [2]
  Viable Cells (%): 99.43%
Caco-2 cells; [3]
  Viable Cells (%): 91.04 ± 1.53 ^c %
Caco-2 cells; [4]
  Viable Cells (%): 95.50 ± 3.60 ^b %

## HGSLGFLPR [quinoa peptide identified from QPH fraction < 5 kDa]
Caco-2 cells; [1]
  Viable Cells (%): 96.81 ± 0.88 ^b %
Caco-2 cells; [2]
  Viable Cells (%): 97.35 ± 1.03 ^c %
Caco-2 cells; [3]
  Viable Cells (%): 95.80 ± 0.62 ^b %
Caco-2 cells; [4]
  Viable Cells (%): 96.91%

## NIFRPF [quinoa peptide identified from QPH fraction < 5 kDa]
Caco-2 cells; [1]
  Viable Cells (%): 70.29 ± 0.56 ^h %
Caco-2 cells; [2]
  Viable Cells (%): 100.10 ± 1.03 ^a %
Caco-2 cells; [3]
  Viable Cells (%): 70.55 ± 2.01 ^g %
Caco-2 cells; [4]
  Viable Cells (%): 85.11 ± 0.66 ^d %
HDAC1
  HDAC1 IC50 attained or not, in words: can reach to IC50 value

## SLPNFHPFPR [quinoa peptide identified from QPH fraction < 5 kDa]
Caco-2 cells; [1]
  Viable Cells (%): 78.51 ± 0.26 ^g %
Caco-2 cells; [2]
  Viable Cells (%): 97.79%
Caco-2 cells; [3]
  Viable Cells (%): 78.00 ± 0.80 ^f %
Caco-2 cells; [4]
  Viable Cells (%): 87.21 ± 0.32 ^d %
HDAC1
  HDAC1 IC50 attained or not, in words: can reach to IC50 value

## NSLSLPNFHPFPR [quinoa peptide identified from QPH fraction < 5 kDa]
Caco-2 cells; [1]
  Viable Cells (%): 86.55 ± 0.58 ^e %
Caco-2 cells; [2]
  Viable Cells (%): 100.79 ± 0.52 ^a %
Caco-2 cells; [3]
  Viable Cells (%): 83.56 ± 0.71 ^d %
Caco-2 cells; [4]
  Viable Cells (%): 92.78 ± 2.20 ^c %

## NWFPLPR [NWFPLPR]
Caco-2 cells; 24 h, 0.1 g/L
  Viable Cells (%): 92.86 ± 1.10 ^d %
Caco-2 cells; 24 h, 0.5 g/L
  Viable Cells (%): 79.99 ± 0.86 ^e %
Caco-2 cells; 24 h, 1 g/L
  Viable Cells (%): 64.02 ± 1.39 ^j %
Caco-2 cells; 24 h, 2 g/L
  Viable Cells (%): 63.18 ± 0.83 ^i %
Caco-2 cells; 1 g/L
  inhibition of Caco-2 proliferation: more than 30%
HDAC1
  HDAC1 IC50 attained or not, in words: can reach to IC50 value
  IC50: 1370 µM

## INNIFRPF [quinoa peptide identified from QPH fraction < 5 kDa]
Caco-2 cells; [1]
  Viable Cells (%): 80.44 ± 0.68 ^f %
Caco-2 cells; [2]
  Viable Cells (%): 100.40 ± 1.29 ^a %
Caco-2 cells; [3]
  Viable Cells (%): 80.61 ± 0.41 ^e %
Caco-2 cells; [4]
  Viable Cells (%): 92.05 ± 1.07 ^c %
HDAC1
  HDAC1 IC50 attained or not, in words: can reach to IC50 value

## lunasin
Colon cancer cells
  IC50: 61.7 µM

## FGGGTLGHPW [quinoa peptide identified from QPH fraction < 5 kDa]
Caco-2 cells; [1]
  Viable Cells (%): 90.41 ± 0.69 ^d %
Caco-2 cells; [2]
  Viable Cells (%): 97.09 ± 0.74 ^c %
Caco-2 cells; [3]
  Viable Cells (%): 89.72 ± 0.60 ^c %
Caco-2 cells; [4]
  Viable Cells (%): 91.65 ± 0.43 ^c %

## GLESPNYPWPH [quinoa peptide identified from QPH fraction < 5 kDa]
Caco-2 cells; [1]
  Viable Cells (%): 97.40 ± 0.73 ^b %
Caco-2 cells; [2]
  Viable Cells (%): 99.75 ± 1.06 ^a %
Caco-2 cells; [3]
  Viable Cells (%): 97.70%
Caco-2 cells; [4]
  Viable Cells (%): 99.32 ± 1.05 ^a %
